The text below walks through data of BindingDB's records for doi:10.1016/s0960-894x(00)00185-2 (Yale University, 2000).

Assay [1] has as its target T1, 5-hydroxytryptamine receptor 2C (Rattus norvegicus, UniProt P08909).
T1 sequence (P08909 whole entry): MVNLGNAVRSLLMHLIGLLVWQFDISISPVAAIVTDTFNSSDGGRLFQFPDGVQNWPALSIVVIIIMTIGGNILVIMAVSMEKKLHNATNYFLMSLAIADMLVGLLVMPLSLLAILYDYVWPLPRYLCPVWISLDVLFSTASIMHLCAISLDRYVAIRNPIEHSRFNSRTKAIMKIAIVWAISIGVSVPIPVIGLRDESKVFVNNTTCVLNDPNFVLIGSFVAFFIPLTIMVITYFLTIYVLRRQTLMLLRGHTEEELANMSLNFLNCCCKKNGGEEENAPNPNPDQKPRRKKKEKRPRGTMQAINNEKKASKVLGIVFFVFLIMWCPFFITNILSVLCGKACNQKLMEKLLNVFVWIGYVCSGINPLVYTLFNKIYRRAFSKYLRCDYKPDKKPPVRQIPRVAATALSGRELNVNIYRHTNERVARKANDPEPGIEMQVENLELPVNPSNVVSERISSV
Briefly: ChEBML_2831. As for the experimental part:
Compound was evaluated for affinity towards cerebral 5-hydroxytryptamine 2C receptor in homogenate of caudate putamen tissue from rat brain

Assay [2] concerns the target 5-hydroxytryptamine receptor 2A (Rattus norvegicus, UniProt P14842). Briefly: ChEBML_2648. As for the experimental part:
Compound was evaluated for affinity towards cerebral 5-hydroxytryptamine 2A receptor in homogenate of caudate putamen tissue from rat brain

In assay [3] the target is D(1A) dopamine receptor (Rattus norvegicus, UniProt P18901). Briefly: ChEBML_59008. Here is the method:
Compound was evaluated for affinity towards dopamine D1-like receptor in homogenate of caudate putamen tissue from rat brain

Assay [4] addresses D(2) dopamine receptor (Rattus norvegicus) (UniProt P61169). Kind of assay: Compound was evaluated for affinity towards dopamine D2-like receptor in homogenate of caudate putamen tissue from rat brain.

Sequence of D(2) dopamine receptor (Rattus norvegicus) (P61169 whole entry, looked up): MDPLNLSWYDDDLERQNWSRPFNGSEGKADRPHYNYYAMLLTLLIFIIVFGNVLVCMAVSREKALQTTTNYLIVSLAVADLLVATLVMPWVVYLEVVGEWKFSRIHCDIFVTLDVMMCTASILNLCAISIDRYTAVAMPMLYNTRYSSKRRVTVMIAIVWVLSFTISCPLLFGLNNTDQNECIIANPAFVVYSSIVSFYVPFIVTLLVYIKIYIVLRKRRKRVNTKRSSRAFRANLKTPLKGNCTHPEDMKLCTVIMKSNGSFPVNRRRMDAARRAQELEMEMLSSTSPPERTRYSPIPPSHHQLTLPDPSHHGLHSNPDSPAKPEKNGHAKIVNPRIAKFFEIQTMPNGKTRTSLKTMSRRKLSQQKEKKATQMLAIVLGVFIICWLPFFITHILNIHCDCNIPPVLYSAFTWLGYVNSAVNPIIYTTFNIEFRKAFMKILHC
Sequence of D(1A) dopamine receptor (P18901 whole entry): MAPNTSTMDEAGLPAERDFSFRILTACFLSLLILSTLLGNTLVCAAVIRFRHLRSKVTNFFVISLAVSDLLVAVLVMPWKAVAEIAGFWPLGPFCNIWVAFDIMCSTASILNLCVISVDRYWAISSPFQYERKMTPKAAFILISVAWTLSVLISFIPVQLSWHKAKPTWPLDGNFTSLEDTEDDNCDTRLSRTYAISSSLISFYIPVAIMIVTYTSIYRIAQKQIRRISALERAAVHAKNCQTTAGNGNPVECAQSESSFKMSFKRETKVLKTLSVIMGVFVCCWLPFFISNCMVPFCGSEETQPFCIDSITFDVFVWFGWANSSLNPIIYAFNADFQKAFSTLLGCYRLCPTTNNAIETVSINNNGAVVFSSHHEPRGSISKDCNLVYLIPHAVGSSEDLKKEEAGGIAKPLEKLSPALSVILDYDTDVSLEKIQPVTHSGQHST
Sequence of 5-hydroxytryptamine receptor 2A (P14842 whole entry): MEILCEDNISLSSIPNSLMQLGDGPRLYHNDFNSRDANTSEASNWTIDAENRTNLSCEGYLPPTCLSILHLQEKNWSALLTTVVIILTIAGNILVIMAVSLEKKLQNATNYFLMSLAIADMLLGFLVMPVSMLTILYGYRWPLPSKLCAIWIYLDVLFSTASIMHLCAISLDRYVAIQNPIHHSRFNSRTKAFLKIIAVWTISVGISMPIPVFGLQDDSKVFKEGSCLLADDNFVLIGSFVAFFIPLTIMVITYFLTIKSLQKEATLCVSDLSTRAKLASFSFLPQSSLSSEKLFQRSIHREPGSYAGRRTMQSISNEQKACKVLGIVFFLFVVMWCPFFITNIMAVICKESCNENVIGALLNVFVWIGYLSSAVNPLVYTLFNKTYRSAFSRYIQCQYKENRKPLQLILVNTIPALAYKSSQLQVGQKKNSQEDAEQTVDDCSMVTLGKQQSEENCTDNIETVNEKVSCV

A word on the Ki: it is the dissociation constant of the complex between target and ligand, obtained from inhibition or displacement. High values mean a looser hold on the target, low ones a stronger hold on the target. `CN1CCc2cc(Cl)c(O)cc2C(c2ccccc2C(=O)C2=CC=C[C@@H]2[Re]([CH]=O)([CH]=O)[CH]=O)C1` (some centres undefined) [Cyclopentadienyltricarbonylrheniumbenzazepine (2`-CPTR-SCH-23390)]: the Ki is 29 nM in assay [1], 17 nM in assay [2], 0.61 nM in assay [3] and 549 nM in assay [4].
For `CN1CCc2cc(Cl)c(O)cc2C(c2cccc(C(=O)C3=CC=C[C@@H]3[Re]([CH]=O)([CH]=O)[CH]=O)c2)C1` (some centres undefined) [Cyclopentadienyltricarbonylrheniumbenzazepine (3`-CPTR-SCH-23390)], in that order: 106 nM, 227 nM, 2.9 nM and greater than 10000 nM.
`CN1CCc2cc(Cl)c(O)cc2C(c2cccc(Br)c2)C1` (centres undefined) [5-(3-Bromo-phenyl)-8-chloro-3-methyl-2,3,4,5-tetrahydro-1H-benzo[d]azepin-7-ol] came in with a Ki in assay [4] of 1120 nM. This counts as single-digit micromolar.
